Results on ten compounds are retold here after PMC7870626, “Neurotoxicity and underlying cellular changes of 21 mitochondrial respiratory chain inhibitors” (Archives of Toxicology, 2021).

Experiment [1] relates to U2OS cells. As to the kind of experiment: cells. Type of experiment: cell-based. The settings on record: Homo sapiens, 24 h. As for the experimental part:
A cell suspension of 100,000 cells/ml was prepared in assay medium, and white 384-well plates were filled with 30 µl/well cell suspension. Twenty-four hours after seeding, a dilution series of test compound, as well as positive and negative controls, were added to the cells. After 24 h exposure, the medium was removed, and 10 µl of Triton X-100 lysis buffer was added to each well. The luminescent signal was determined in a luminometer by injecting BDS Illuminate Mix and measuring the light emission. The Cytotox CALUX cell line constitutively expresses a high level of luciferase protein; the light emission is therefore proportional to the cell number of live cells, and its decrease can be used as measure of cytotoxicity. The light emission generated by cells exposed to vehicle control was set to 100%, and the luminescence of cells exposed to the positive control toxicant tributyltin acetate [100 µM] was set to 0%. The light output of the cells exposed to different concentrations of test compounds was scaled accordingly.

Experiment [2] deals with SH-SY5Y cells. Type of experiment: cell-based, human. The settings on record: up to 10 µM; for Neurite degeneration: 24 h exposure, without affecting viability; for Neurite degeneration (in words) / Reduction in viability: 120 h exposure. As for the experimental part:
The cells are able to form neurites and display several dopaminergic characteristics. […] Differentiation was initiated 24 h later (on day 0, d0) by exchange to 100 µl/well differentiation medium (DMEM:F12, supplemented with 1 µM all-trans retinoic acid (RA), 1 × N2 supplement, 2 mM L-glutamine, 100 µg/ml streptomycin, and 100 U/ml penicillin). All media and supplements were obtained from Gibco (ThermoFisher) except from RA (Sigma).
On d3, 100 µl of fresh differentiation medium were added to the wells. For the 120 h exposure, this medium contained twice the final treatment concentration. On d6, 100 µl from each well were removed, and the procedure was repeated and the cells were analyzed on d8. For the 24 h exposure, cells received an addition of 100 µl pure differentiation medium on d3 and were treated with compounds as described above on d6 for 24 h before analysis. […] The cells were incubated with the stain mixture for 20 min at 37 °C, 5% CO2. After incubation, 130 µL of differentiation medium were added to all the wells to stop further staining of the cells. Images were obtained using ImageXpress® Micro (Molecular Devices). […] The mean neurite length was calculated using the Neurite Outgrowth plug-in in the MetaXpress® Software. Outgrowths were defined as cytoplasmic prolongations with a maximum width of 2 µm (3 pixels). The minimum outgrowth size needed to be logged as significant was defined as 15 µm (23 pixels).

Experiment [3] concerns LUHMES cells. Description: Mitochondrial respiration of intact LUHMES cells (Seahorse OCR). Type of experiment: cell-based, human. The settings on record: d3 LUHMES, acute treatment, highest non-cytotoxic concentration (cII inhibitors 100 µM). As for the experimental part: Respiration of intact LUHMES cells was performed as described earlier (Delp et al. [2018a], [2019]). Briefly, 48 h differentiated cells were re-seeded into Agilent Seahorse XFe24-well plates in DM without cAMP and GDNF at a density of 100,000 cells/cm^2 and cultured for 24 h before the assay was initiated. Inhibition of respiration was calculated as the difference between baseline measurements (i.e., after equilibration, last measurement before treatment) and the first measurement after treatment with the test compound.

For experiment [4], the system named is MRC complex (cI, cII or cIII). As to the kind of experiment: HepG2-based MRC complex assay in permeabilized cells (earlier study). The format is cell-based. Particulars: NeuriTox neurite EC25 relative to complex assay EC25 in permeabilized cells; respirometric data from HepG2-based assays ref van der Stel et al. 2020.
Experiment [5] addresses T1, cI (Homo sapiens, UniProt O75251+O75306+P03886).
T1 construct: endogenous in cells; host or cells: LUHMES cells, digitonin-permeabilized
Type of experiment: cell-based. Particulars: permeabilized LUHMES; capsaicin 50 µM, mepronil 100 µM. As for the experimental part:
(§1) To investigate individual respiratory chain complexes, a method developed earlier and described extensively was used (Delp et al. [2019]). In brief, LUHMES cells were seeded at a density of 205,000 cells/cm^2 in PM into Agilent Seahorse XFe24-well plates. […] To reduce data variability, internal normalization of the OCR of each well was done relative to its value after equilibration.

For experiment [6], the system named is cI. Further details: method as in van der Stel et al. 2020. Particulars: liver and kidney cells ref van der Stel et al. 2020; read-out: IC50 for inhibition of cI; cited from earlier work.
Experiment [7] deals with T2, cII (Homo sapiens, UniProt O14521+P21912+Q99643).
T2 construct: endogenous in cells; host or cells: LUHMES cells, digitonin-permeabilized
T2 sequence (P21912 29-280): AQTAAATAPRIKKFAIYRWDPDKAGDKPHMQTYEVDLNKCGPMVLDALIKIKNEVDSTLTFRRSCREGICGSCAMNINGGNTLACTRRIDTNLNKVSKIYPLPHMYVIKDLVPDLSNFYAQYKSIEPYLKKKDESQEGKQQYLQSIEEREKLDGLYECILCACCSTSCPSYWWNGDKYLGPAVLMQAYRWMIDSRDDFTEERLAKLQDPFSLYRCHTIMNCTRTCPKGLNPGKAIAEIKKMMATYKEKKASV
T2 sequence (Q99643 30-169): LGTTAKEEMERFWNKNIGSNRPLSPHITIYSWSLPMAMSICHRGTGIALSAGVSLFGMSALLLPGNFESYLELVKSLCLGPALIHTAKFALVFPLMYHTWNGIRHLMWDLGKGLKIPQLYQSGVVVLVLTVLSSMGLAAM
T2 sequence (O14521 57-159): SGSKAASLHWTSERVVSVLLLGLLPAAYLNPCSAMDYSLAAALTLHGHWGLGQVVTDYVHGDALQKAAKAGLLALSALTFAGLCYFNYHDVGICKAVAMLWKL
T2 sequence (P31040 43-664 partner): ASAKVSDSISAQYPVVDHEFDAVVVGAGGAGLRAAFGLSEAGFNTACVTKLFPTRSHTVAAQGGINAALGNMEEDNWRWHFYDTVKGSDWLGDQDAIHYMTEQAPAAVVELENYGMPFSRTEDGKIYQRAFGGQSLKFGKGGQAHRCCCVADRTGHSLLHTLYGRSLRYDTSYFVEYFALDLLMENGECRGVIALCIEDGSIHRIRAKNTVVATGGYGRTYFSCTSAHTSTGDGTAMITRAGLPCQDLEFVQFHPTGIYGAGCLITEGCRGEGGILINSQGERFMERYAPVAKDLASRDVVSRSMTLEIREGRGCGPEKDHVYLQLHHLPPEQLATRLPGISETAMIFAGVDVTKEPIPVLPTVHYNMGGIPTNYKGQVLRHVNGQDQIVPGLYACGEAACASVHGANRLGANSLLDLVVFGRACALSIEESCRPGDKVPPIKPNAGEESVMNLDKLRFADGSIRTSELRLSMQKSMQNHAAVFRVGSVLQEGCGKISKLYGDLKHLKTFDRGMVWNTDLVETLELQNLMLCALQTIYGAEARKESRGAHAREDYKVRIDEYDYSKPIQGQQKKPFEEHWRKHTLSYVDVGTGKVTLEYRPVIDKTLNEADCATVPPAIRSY
Description: Respiratory chain complex activity in permeabilized LUHMES cells: cII. The format is cell-based. Particulars: mepronil at 100 µM. As for the experimental part:
as §1

For experiment [8], the system named is LUHMES cells. Description: LUHMES 120 h exposure scenario, neurite effects. Type of experiment: cell-based, human. As for the experimental part:
The NeuriTox test was performed as previously described (Delp et al. [2018b]; Krug et al. [2013a]; Stiegler et al. [2011]). Briefly, cells differentiated for 48 h were re-seeded into 96-well plates at a density of 100,000 cells/cm^2 in DM without cAMP and GDNF, and treated 1 h after seeding for 24 h. Subsequently, multiple endpoints were determined, e.g., neurite outgrowth (i.e., NeuriTox test), resazurin reduction, intracellular ATP content, gene expression levels from TempO-Seq analysis, and proteasomal activity. For the 120 h exposure scenario, LUHMES cells were differentiated for another 3 days after reseeding before they were treated on day 5 (d5) and d7 by a half medium exchange. Endpoints were determined on d10 of differentiation.
Image acquisition and analysis was performed as described previously (Krug et al. [2013a]; Schildknecht et al. [2013]; Stiegler et al. [2011]). In brief, cells were live-stained with 1 µg/ml Hoechst H-33342 and 1 µM calcein-AM and image acquisition was done by an automated high content imager (Cellomics, Waltham, MA, USA). Cell viability was determined as ratio of live cells (cell bodies being Calcein- and Hoechst-positive) relative to the total amount of cells (Hoechst-positive cell bodies). Neurite area was calculated by subtracting the somatic area (Hoechst-positive area plus surrounding) from the calcein-positive area.

Experiment [9] has as its system HepG2 cells. Further details: method as in van der Stel et al. 2020. The settings on record: ref van der Stel et al. 2020; cited from earlier work.
Experiment [10] has as its system cII. Further details: method as in van der Stel et al. 2020. The settings on record: read-out: Concentration at which 50% inhibition was observed; HepG2 cells ref van der Stel et al. 2020; cited from earlier work.
Setting [11] is: U2OS osteosarcoma cells, luminescence of constitutively expressed luciferase, read-out: Cytotox EC25 U2OS (converted).

The structures appear in SMILES notation. “Also recorded” adds a separate entry of the source. Where two headings read alike, the source gives them in different places.

T1 sequence (O75306 34-463): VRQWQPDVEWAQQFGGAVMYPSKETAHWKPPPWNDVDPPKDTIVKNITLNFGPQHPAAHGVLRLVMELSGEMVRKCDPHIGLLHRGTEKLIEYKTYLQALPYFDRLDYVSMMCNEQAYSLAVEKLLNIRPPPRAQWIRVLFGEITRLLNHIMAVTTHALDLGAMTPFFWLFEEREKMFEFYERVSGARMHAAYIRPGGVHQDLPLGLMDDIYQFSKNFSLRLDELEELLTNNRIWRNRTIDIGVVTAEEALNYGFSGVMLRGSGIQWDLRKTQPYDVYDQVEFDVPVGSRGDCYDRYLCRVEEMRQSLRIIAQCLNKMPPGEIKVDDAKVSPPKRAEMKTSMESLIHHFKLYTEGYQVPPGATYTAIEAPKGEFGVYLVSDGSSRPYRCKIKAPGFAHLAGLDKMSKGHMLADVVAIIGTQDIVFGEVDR
T1 sequence (P03886 whole entry): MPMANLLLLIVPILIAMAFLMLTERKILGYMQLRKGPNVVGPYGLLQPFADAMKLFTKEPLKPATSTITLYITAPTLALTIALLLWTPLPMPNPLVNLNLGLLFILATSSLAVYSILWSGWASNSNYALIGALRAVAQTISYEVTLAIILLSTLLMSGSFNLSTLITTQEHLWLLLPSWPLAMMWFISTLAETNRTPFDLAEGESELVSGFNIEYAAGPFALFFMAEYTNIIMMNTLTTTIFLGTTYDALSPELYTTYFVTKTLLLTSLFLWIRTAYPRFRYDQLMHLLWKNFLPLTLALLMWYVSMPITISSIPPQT
T1 sequence (O75251 39-213): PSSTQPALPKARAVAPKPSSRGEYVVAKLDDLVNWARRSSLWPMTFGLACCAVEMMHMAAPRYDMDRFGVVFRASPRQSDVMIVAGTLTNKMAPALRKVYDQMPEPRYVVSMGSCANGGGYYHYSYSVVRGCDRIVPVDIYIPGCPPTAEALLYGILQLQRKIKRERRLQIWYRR

On to `CCCCCC[C@H]1C(=O)O[C@H](C)[C@H](NC(=O)c2cccc(NC=O)c2O)C(=O)O[C@@H](C)[C@@H]1OC(=O)CC(C)C` [Antimycin A], for which, in experiment [1] (setting [11]), the 25% effect concentration (EC25) (in general, the concentration needed for an effect of 25%) is 100 µM. Further, in [2], the Neurite degeneration is more than 25%, the “Neurite degeneration (in words)” value was “degeneration of neurites” and the Reduction in viability is more than 25%. Also, in [3], the “Inhibition of total mitochondrial respiration of intact cells” value (“Inhibition … of intact cells” for short) is reported as “strong inhibitory effects”. Moreover, in experiment [4], the “Ratios of EC25 KE4/KE1 complex assay” value came to 1580.
As for `COc1cc(CNC(=O)CCCC/C=C/C(C)C)ccc1O` [Capsaicin], in experiment [1] (setting [11]), the concentration for an effect of 25% (EC25) is 63.1 µM. Besides, in experiment [3], the “Inhibition … of intact cells” value is given as “weak response”. The “Inhibition of cI activity (in words)” value in experiment [5] is “no significant response”. For the same compound, the IC50 in [6] is more than 200 µM.
With `CC1=C(C(=O)Nc2ccccc2)SCCO1` [Carboxin], the EC25 in experiment [1] (setting [11]) was more than 100 µM. Also, the “Inhibition of cII activity (in words)” value in [7] is on record as “strong inhibition of cII”. Also, the “Ratios of EC25 KE4/KE1 complex assay” value in [4] came out at 32.
On to `Cc1ccc(-c2c(Cl)nc(C#N)n2S(=O)(=O)N(C)C)cc1` [Cyazofamid], for which the concentration for an effect of 25% (EC25) in experiment [1] (setting [11]) was 100 µM. In addition, in [2], the Neurite degeneration is given as more than 25%, the “Neurite degeneration (in words)” value is recorded as “degeneration of neurites; also recorded: increased neurite degeneration” and the Reduction in viability is reported as more than 25%. The “Increase in sensitivity of neurite EC25, 120 h versus 24 h exposure” value (shortened to “Increase in sensitivity of neurite EC25”) in experiment [8] was “five-to-eightfold”. Besides, in experiment [3], the “Inhibition … of intact cells” value was “inactive”. In addition, the “Ratios of EC25 KE4/KE1 complex assay” value in experiment [4] is listed as less than 5. Besides, the “Mode of action found in HepG2 cells” value in experiment [9] is reported as “uncoupler”.
Regarding `COc1cc2c(cc1OC)[C@@H]1C(=O)c3ccc4c(c3O[C@@H]1CO2)C=CC(C)(C)O4` [Deguelin], the EC25 in [1] (setting [11]) was more than 50.1 µM. For the same compound, in experiment [2], the Neurite degeneration entry is “no effects”, the “Neurite degeneration (in words)” value is “degeneration of neurites; also recorded: increased neurite degeneration” and the Reduction in viability is given as more than 25%. Besides, the “Increase in sensitivity of neurite EC25” value in experiment [8] was “five-to-eightfold”. Besides, in experiment [4], the “Ratios of EC25 KE4/KE1 complex assay” value was determined as 250.
On to `Cc1ccccc1C(=O)Nc1cccc(OC(C)C)c1` [Mepronil], for which, in [1] (setting [11]), the EC25 was more than 100 µM. In addition, the “Inhibition of cI activity (in words)” value in experiment [5] is on record as “weakly affected cI”. For the same compound, the “Inhibition of cII activity (in words)” value in [7] is recorded as “significant, but weak inhibitor”. In addition, the “Ratios of EC25 KE4/KE1 complex assay” value in experiment [4] is more than 5.0. Further, the IC50 in experiment [10] was more than 100 µM.
`COC(=O)N(OC)c1ccccc1COc1ccn(-c2ccc(Cl)cc2)n1` [Pyraclostrobin]: the EC25 in experiment [1] (setting [11]) is more than 100 µM. In experiment [8], the “Increase in sensitivity of neurite EC25” value was “five-to-eightfold”. Further, the “Ratios of EC25 KE4/KE1 complex assay” value in experiment [4] is listed as 400.
Consider `CCOCCc1ccc(OCCN=c2[nH]cnc(CC)c2Cl)c(C)c1C` [Pyrimidifen], for which the 25% effect concentration (EC25) in experiment [1] (setting [11]) is 100 µM. The “Increase in sensitivity of neurite EC25” value in [8] was found to be 9.8 fold. Moreover, in [4], the “Ratios of EC25 KE4/KE1 complex assay” value was 15850.
Turning to `C=C(C)[C@H]1Cc2c(ccc3c2O[C@@H]2COc4cc(OC)c(OC)cc4[C@@H]2C3=O)O1` [Rotenone], the 25% effect concentration (EC25) in experiment [1] (U2OS, read-out: Cytotox EC25 U2OS) is 31.6 µM. Besides, in experiment [2], the Neurite degeneration is more than 25%, the “Neurite degeneration (in words)” value was “degeneration of neurites” and the Reduction in viability was more than 25%. Also, the “Ratios of EC25 KE4/KE1 complex assay” value in experiment [4] worked out at 7.9.
For `Cc1nc(C(F)(F)F)c(C(=O)Nc2c(Br)cc(OC(F)(F)F)cc2Br)s1` [Thifluzamide], the EC25 in [1] (setting [11]) was 20 µM. The “Increase in sensitivity of neurite EC25” value in experiment [8] is “five-to-eightfold”. Further, the “Inhibition of cII activity (in words)” value in experiment [7] was “strong inhibition of cII”. Further, the “Ratios of EC25 KE4/KE1 complex assay” value in [4] is given as 2.5.
